Assays:
CD4+ T cells [1] = test: T cell receptor-induced CD4+ T cell proliferation (CFSE, flow cytometry); assay type: cell-based, human; conditions: 10 μg/mL αCD3 + 2 μg/mL αCD28, 6 days; for IC50: Homo sapiens, CD4+ T, 144 h, division index by CFSE, n=4, ±sem, read-out: pIC50, T cell receptor-induced proliferation of CD4+ T cells (converted)
Procedure: (§1) 15 mls ficoll was added to 8×50 mL accuspin tubes per donor and centrifuged at 2000 RPM for 1 min. Whole blood samples (200 mL+1% heparin) were collected from human donors. Approximately 25 ml blood was added to each ficoll pre-filled 50 ml falcon tubes with filter and centrifuged at 1500 RPM for 20 min with the brake off to avoid disturbing cell separation. 45 ml with PBS was added to the PBMC fraction of each tube and centrifuged at 1500 RPM for 10 min with brake. Supernatant were discarded and cell pellets resuspended in 2 ml PBS. Cell suspensions for each donor were recombined into a single falcon tube, made up to 45 ml with PBS and centrifuged at 1500 RPM for 10 min. CD4+ T cells were isolated by negative depletion using a CD4 T cell Isolation Kit from Miltenyi Biotech according to manufacturers protocol.
96-well flat-bottom plates were coated with 10 μg/mL anti-CD3+2 μg/mL anti-CD28 at 4° C. overnight. The following day, plates were washed with PBS. For proliferation studies, cells were stained with CFSE (Invitrogen) according to manufacturer's protocol. […] Cells were then transferred to 96-well round-bottom plates, washed and then analysed by flow cytometry.
(§2) Anti-CD3 (HU CD3 NALE MAB UCHT1; Cat #555329) and anti-CD28 (HU CD28 NALE MAB CD28.2; Cat #: 555725), were obtained from BD Pharmingen and dissolved in Dulbecco's Phosphate Buffered Saline (with Ca2+/Mg2+; Gibco). Ficoll-paque (Cat #17-1440-03) was obtained from GE Healthcare. The CD4+ T cell isolation kit (Cat #130-091-155) was obtained from Miltenyi Biotec. Cells were cultured in RPMI 1640 containing 10% FCS+1% pen/strep+1% L-glutamine. The CellTrace CFSE cell proliferation kit (Cat #C34554) was obtained from Invitrogen. Compound A, Compound B and Compound C were all synthesised in house and dissolved in 100% DMSO.
Flowjo Software was used to calculate a division index using fluorescence intensity. Data are expressed as mean±standard error of the mean; n values are the numbers of human donors used. pIC50 values were generated using GraphPad Prism software and non-linear sigmoid dose curve-fit.

CD4+ T cells [2] = test: T cell receptor-induced cytokine production in CD4+ T cells (multiplex ELISA); assay type: cell-based, human; conditions: for IC50: Homo sapiens, CD4+ T, n=4, ±sem, read-out: pIC50, T cell receptor-induced production of IL-2 in CD4+ T cells (converted)
Procedure: as §1
96-well flat-bottom plates were coated with 10 μg/mL anti-CD3+2 μg/mL anti-CD28 at 4° C. overnight. The following day, plates were washed with PBS. For cytokine production studies, cells were added to anti-CD3+anti-CD28 pre-coated 96-well plates at 0.4×10^6 cells/well in the presence of EZH1/EZH2 inhibitors or vehicle and incubated at 37° C./5% CO2. Supernatants were taken 18 h (IL-2) or 72 h (IL-10, IL-13, IL-17, IFN, TNF) for determination of cytokine production by multiplex ELISA from Mesoscale discovery according to the manufacturers protocols.
as §2
Data were analysed using Excel and are expressed as mean±standard error of the mean; n values are the numbers of human donors used. pIC50 values were generated using GraphPad Prism software and non-linear sigmoid dose curve-fit.

SMILES | effect on T cell receptor-induced proliferation of CD4+ T cells (CD4+ T cells [1]; n=4) | effect on T cell receptor-induced production of IL-2 in CD4+ T cells (CD4+ T cells [2]; 18 h post stimulation, n=4, a pIC50 could not be calculated) | effect on T cell receptor-induced production of IL-17 or IFN in CD4+ T cells (CD4+ T cells [2]; 72 h post stimulation, n=4) | effect on IL-10, IL-13 & TNF production (CD4+ T cells [2]; High concentrations (i.e. >15 μM), 72 h, n=4) | IC50 (CD4+ T cells [1]) | IC50 (CD4+ T cells [2]; 18 h post stimulation)
Cc1ccc(CNC(=O)c2cc(C3CC3)nc3c2cnn3C(C)C)c(=O)[nH]1 [Compound C, 6-cyclopropyl-1-(1-methylethyl)-N-[(6-methyl-2-oxo-1,2-dihydro-3-pyridinyl)methyl]-1H-pyrazolo[3,4-b]pyridine-4-carboxamide] | had no effect | impaired | had no effect | reduced | – | –
CCCc1cc(C)[nH]c(=O)c1CNC(=O)c1cc(-c2ccc(N3CCN(C)CC3)nc2)cc2c1cnn2C(C)C [Compound A, 1-(1-methylethyl)-N-[(6-methyl-2-oxo-4-propyl-1,2-dihydro-3-pyridinyl)methyl]-6-[6-(4-methyl-1-piperazinyl)-3-pyridinyl]-1H-indazole-4-carboxamide] | – | – | – | – | 5.01 µM | 0.575 µM
Cc1cc(C)c(CNC(=O)c2cc(-c3ccc(N4CCN(C)CC4)nc3)cc3c2c(C)cn3C(C)C)c(=O)[nH]1 [Compound B, N-[(4,6-dimethyl-2-oxo-1,2-dihydro-3-pyridinyl)methyl]-3-methyl-1-(1-methylethyl)-6-[6-(4-methyl-1-piperazinyl)-3-pyridinyl]-1H-indole-4-carboxamide] | – | – | – | – | 11.7 µM | 1.74 µM

Reference: patent publication US9242962B2, “Method of treatment” (GlaxoSmithKline Intellectual Property (No. 2) Limited, priority 2011, dated 2016)
